Measured values taken from paper PMC11988817, “Prediction and Prioritisation of Novel Anthelmintic Candidates from Public Databases Using Deep Learning and Available Bioactivity Data Sets” (International Journal of Molecular Sciences, 2025).

Assays:
[1] = test system: exsheathed third-stage larvae (xL3s) of H. contortus; experiment: xL3 larval development (to L4) assay; design: species or system Haemonchus contortus; settings: for IC50: Haemonchus contortus, read-out: Larval Development IC50
Procedure: (§1) The prioritised compounds were purchased from MolPort and evaluated for their activity by estimating their IC50 values and MMIs against xL3s of H. contortus (Haecon-5 strain) using an established method. In brief, xL3s were dispensed in 96-well plates (cat. no. 3596; Corning, Corning, NY, USA) at a density of 300 xL3s per well with individual, serially diluted compounds (9-points; 2-fold serial dilution; 50 µM to […]), in a final volume of 100 µL of LB* (= sterile lysogenic broth [LB] supplemented with 100 IU/mL penicillin, 100 µg/mL streptomycin and 0.25 µg/mL amphotericin B [Fungizone®, Thermo Fisher Scientific, Waltham, MA, USA]). Plates containing xL3s were incubated at 38 °C, 10% (v/v) CO2 and >90% relative humidity. Following 168 h of incubation, the compounds were tested by three independent experiments in triplicate. The xL3s motility and development to fourth-stage larvae (L4s) were measured with reference to two commercial anthelmintics, monepantel (Zolvix^TM; Elanco, Greenfield, IN, USA) and moxidectin (Cydectin®; Virbac, Carros, France). Negative control wells containing 0.25% (v/v) DMSO were present on all plates. […] Compound concentrations were log10-transformed and fitted using a variable slope four-parameter equation, constraining the highest value to 100% and employing a least squares (ordinary) fit model as implemented in GraphPad Prism software (v.10.0.1). A one-way analysis of variance (ANOVA) with a Dunnett’s multiple comparison test was used to establish statistically significant differences in larval motility and in development.

[2] = test system: exsheathed third-stage larvae (xL3s) of H. contortus; experiment: xL3 larval motility dose-response assay; design: species or system Haemonchus contortus; settings: for inhibition at 50 µM / inhibition at up to 50 µM: read-out: Larval motility maximal inhibition (MI; MMI) (converted); for IC50: read-out: Larval Motility IC50; for inhibition at 50 µM / inhibition at up to 50 µM / Larval motility maximal inhibition (MI; MMI): at 50 µM; for inhibition of xL3 motility (in words): dose-response up to 50 µM
Procedure: as §1

[3] = test system: exsheathed third-stage larvae (xL3s) of H. contortus; experiment: abnormal larval phenotype / worm morphology assessment; design: species or system Haemonchus contortus; key to Abnormal Phenotype: curved (Cur); evisceration (Evi); coiled (Coi); settings: 168 h; for Abnormal Phenotype: exhibited at 50 µM
Procedure: as §1

[4] = HepG2 cytotoxicity (CellTiter-Glo); assay type: cell-based; settings: human
Procedure: The cytotoxicity of the prioritised compounds 3, 4 and 6 on human hepatoma (HepG2) cells was evaluated as described previously. In brief, HepG2 cells were first cultured (in an incubator at 5% (v/v) CO2, 37 °C and >90% humidity) in Dulbecco’s modified Eagle’s medium (DMEM), supplemented with 5% (v/v) foetal bovine serum (FBS). The test compounds were serially diluted (10-points; 2-fold serial dilution; top concentration of 50 μM) in DMEM plus 10% (v/v) FBS, adjusted to a DMSO concentration of 0.5% (v/v) and arrayed across a 384-well plate. Bortezomib (10 μM) was used as a positive control, and 0.5% DMSO was used as a negative control. HepG2 cells (1 × 10^3 cells per 50 μL of DMEM plus 10% FBS) were then seeded into wells of the assay plate; the plates were then incubated in 5% (v/v) CO2, 37 °C and >90% humidity for 48 h. Subsequently, cell proliferation was assessed using CellTiter-Glo (Promega, Fitchburg, WI, USA) and normalised against the negative controls and expressed as a percentage. All compounds were tested in duplicate. The half-maximal cytotoxic (CC50) values were calculated using the software Dotmatics (v.5.3) and Spotfire (v.7.11.1) employing a non-linear regression four-parameter fit analysis.

[5] = test system: adult males of H. contortus; experiment: adult male motility time-course assay; design: species or system Haemonchus contortus; settings: 50 µM
Procedure: (§2) Subsequently, the selected compounds evaluated for in vitro activity against larvae were further assessed for their activity against adult females and males of H. contortus using an established motility assay. In brief, the compound was dispensed in 24-well plates (cat. no. 3524; Corning) at a concentration of 50 μM in 500 μL of RPMI* (RPMI 1640 medium supplemented with 4 mM L-glutamine, 100 U/mL penicillin, 100 µg/mL streptomycin and 0.25 µg/mL amphotericin B). Two positive controls, monepantel and moxidectin, were each prepared in the same manner, and a negative control containing 0.25% (v/v) DMSO was included on all plates. Three adult females or males were added to each of the wells containing either the test compound or a control compound and then incubated at 38 °C, 10% (v/v) CO2 and >90% relative humidity for 24 h. The compounds were tested in triplicate. A video recording (30 sec) of each well was taken at 0 h, 3 h, 6 h, 12 h and 24 h during the entire incubation period to assess the reduction in worm motility—scored as 3 (‘good’), 2 (‘low’), 1 (‘very low’) or 0 (‘none’). For each test or control compound, the motility scores for each of the triplicate wells were calculated, normalised with reference to the negative control (100% motility), and recorded as a percentage. A two-way ANOVA with Dunnett’s multiple comparison test was used to establish statistically significant differences against the DMSO control in worm motility for each time point.

[6] = test system: adult females of H. contortus; experiment: adult female motility time-course assay; design: species or system Haemonchus contortus; settings: 50 µM
Procedure: as §2

[7] = Haemonchus contortus, 168 h, xL3s, 168 h
[8] = Haemonchus contortus, 168 h, xL3s, 168 h of exposure, three independent assays in triplicate

Row | SMILES | IC50 ([1]; xL3s, 168 h of exposure) [µM] | inhibition at 50 µM [2, 7] [%] | IC50 [2, 8] [nM] | Larvae with abnormal phenotype (exhibited at 50 µM) [3] [%] | Abnormal Phenotype [3] | motility reduction, adult females, 24 h [6] [%] | further results
1 | COC(=O)c1ccc(-c2cc(C#N)ccn2)cc1 [Compound 1, Methyl 4-(4-cyanopyridin-2-yl)benzoate] | > 50 | 50 | 6200 ± 300 | 20 | curved (Cur) and Evi | – | inhibition of larval development (in words) ([1]; 168 h): not inhibited
2 | N=C(N)c1ccc(N2CCOCC2)cc1 [Compound 2, 4-(Morpholin-4-yl)benzene-1-carboximidamide] | > 50 | – | 1800 ± 1400 | – | nil | – | inhibition at up to 50 µM [2, 7]: 53%
3 | COc1ccc(-c2cncc(C#N)n2)cc1OC [Compound 3, 6-(3,4-Dimethoxyphenyl)pyrazine-2-carbonitrile] | 37.1 | 54 | 7900 ± 1900 | 80 | Evi | – | Larval development maximal inhibition (MI) ([1]; xL3s, 168 h of exposure): 100%; inhibition of xL3 motility (in words) ([2]; 168 h): inhibition of H. contortus motility was only observed; altered worm morphology / abnormal phenotype (in words) [3]: induced an abnormal phenotype; CC50 at 48 h ([4]; HepG2 cells (human hepatoma)): > 40 µM
4 | c1ccc(-c2cnc3ccccc3n2)cc1 [Compound 4, 2-Phenylquinoxaline] | – | – | – | – | nil | 40 | motility reduction, adult males, 24 h [5]: 50%; IC50 ([1]; 168 h): > 50 µM; IC50 ([2]; Haemonchus contortus, 168 h): 5800 ± 4100 nM; CC50 at 48 h ([4]; HepG2 cells): > 40 µM
5 | O=C(CCC(F)(F)F)NCCc1cnccn1 [Compound 5, 4,4,4-Trifluoro-N-[2-(pyrazin-2-yl)ethyl]butanamide] | > 50 | 65 | 37500 ± 2500 | – | nil | – | –
6 | N#Cc1ccc(OCc2cccc(F)c2)cc1 [Compound 6, 4-[(3-Fluorophenyl)methoxy]benzonitrile] | 23.6 | 100 | 7400 ± 9400 | 100 | Evi | 75 | motility reduction, adult males, 6 h [5]: 50%; motility reduction, adult males, 12 h [5]: 75%; motility reduction, adult males, 24 h [5]: 100%; effect on adult male motility (in words) ([5]; within 24 h): complete immobilisation; motility reduction, adult females, 6 h [6]: 33%; motility reduction, adult females, 12 h [6]: 50%; effect on adult female motility (in words) ([6]; within 24 h): significant reduction in the motility; inhibition of xL3 motility (in words) ([2]; 168 h): inhibition of H. contortus motility was only observed; CC50 at 48 h ([4]; HepG2 cells (human hepatoma)): > 40 µM
7 | N#Cc1ccc(N2CCC(O)CC2)cc1 [Compound 7, 4-(4-Hydroxypiperidin-1-yl)benzonitrile] | > 50 | 70 | 2100 ± 3500 | – | nil | – | –
8 | CC12CN3CN(C1)CC(c1ccccc1)(C3)C2=O [Compound 8, (1S,5R,7S)-5-Methyl-7-phenyl-1,3-diazatricyclo[3.3.1.1³,⁷]decan-6-one] | > 50 | 42 | 800 ± 1600 | – | nil | – | –
9 | N#Cc1ccc(NC(=O)COCC(=O)NCC(N)=O)cc1 [Compound 9, N-(Carbamoylmethyl)-2-{[(4-cyanophenyl)carbamoyl]methoxy}acetamide] | > 50 | 46 | 4100 | – | nil | – | –
10 | CC(C)(CO)NCC#Cc1ccccc1 [Compound 10, 2-Methyl-2-[(3-phenylprop-2-yn-1-yl)amino]propan-1-ol] | > 50 | 50 | 800 ± 1200 | – | nil | 40 | –
11 | C[C@](C#N)(COc1cc(C#N)ccc1C(F)(F)F)NC(=O)c1ccc(SC(F)(F)F)cc1 [Monepantel, N-[(2S)-2-cyano-1-[5-cyano-2-(trifluoromethyl)phenoxy]propan-2-yl]-4-(trifluoromethylsulfanyl)benzamide, reference compound] | 0.4 | – | 200 ± 2 | 100 | Coi | 67 | motility reduction, adult males, 6 h [5]: 67%; motility reduction, adult males, 12 h [5]: 67%; motility reduction, adult males, 24 h [5]: 100%; motility reduction, adult females, 6 h [6]: 67%; motility reduction, adult females, 12 h [6]: 67%; inhibition at up to 50 µM [2, 7]: 100%
12 | CO/N=C1\C[C@]2(C[C@@H]3C[C@@H](C/C=C(\C)C[C@@H](C)/C=C/C=C4\CO[C@@H]5[C@H](O)C(C)=C[C@@H](C(=O)O3)[C@]45O)O2)O[C@H](/C(C)=C/C(C)C)[C@H]1C [Moxidectin, (1R,4S,4'E,5'S,6R,6'S,8R,10E,13R,14E,16E,20R,21R,24S)-21,24-dihydroxy-4'-methoxyimino-5',11,13,22-tetramethyl-6'-[(E)-4-methylpent-2-en-2-yl]spiro[3,7,19-trioxatetracyclo[15.6.1.14,8.020,24]pentacosa-10,14,16,22-tetraene-6,2'-oxane]-2-one, reference compound] | 45 | – | 500 | – | nil | – | Larval development maximal inhibition (MI) ([1]; xL3s, 168 h of exposure): 100%; Larval motility maximal inhibition (MI; MMI) ([2]; xL3s, 168 h): 75%; Larval motility maximal inhibition (MI; MMI) ([2]; xL3s, 168 h, listed as moxidectin): 5%; IC50 ([2]; xL3s, 168 h of exposure, three independent assays in triplicate): 800 ± 400 nM
